Reference: US8759323B2, “Protein phosphatase inhibitor” (LSIP, LLC, priority 2008, dated 2014)
Read-outs that look alike come from different tables or passages of the source.

Legend:
Type in all cases: biochemical
[1] = biological target: T1, PPM1D protein catalytic domain (positions 1 to 420), His tag fusion (Homo sapiens, UniProt O15297); test: PPM1D-inhibitory activity, single concentration (Test Example 1, BIOMOL GREEN free phosphate); parameters: dose or concentration left out as unconfirmed; conditions: read-out: Rate of PPM1D inhibition (: %)
T1 construct: the catalytic domain (the positions 1 to 420) of PPM1D protein; His tag; made in house; host or cells: E. coli (pColdI vector)
T1 sequence (O15297 1-420): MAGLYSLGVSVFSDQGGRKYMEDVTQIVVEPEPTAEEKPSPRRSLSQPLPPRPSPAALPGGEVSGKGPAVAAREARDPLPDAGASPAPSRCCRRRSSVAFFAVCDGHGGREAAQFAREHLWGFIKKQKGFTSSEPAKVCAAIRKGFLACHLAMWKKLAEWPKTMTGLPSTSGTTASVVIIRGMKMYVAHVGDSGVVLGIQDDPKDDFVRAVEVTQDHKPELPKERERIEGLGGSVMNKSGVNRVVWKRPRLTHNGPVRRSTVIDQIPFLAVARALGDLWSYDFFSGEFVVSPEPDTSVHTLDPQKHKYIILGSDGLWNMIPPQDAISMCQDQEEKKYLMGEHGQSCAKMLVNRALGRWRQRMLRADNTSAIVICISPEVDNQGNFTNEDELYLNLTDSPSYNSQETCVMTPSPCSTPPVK
Description: The PPM1D-inhibitory activity of the compound of the present invention (1) was measured.
Into a pColdI vector (TaKaRa Bio Inc.), cDNA encoding the catalytic domain (the positions 1 to 420) of PPM1D protein (Protein ID: O15297/cDNA ID: U70385) was introduced, and the PPM1D protein was expressed in E. coli as a His tag fusion protein. The protein of interest was purified by metal affinity chromatography with BD-TALON resin (CLONTECH), and then eluted with an elution buffer (150 mM imidazole, PBS (pH 7.5), 500 mM NaCl, 10% glycerol, 0.2% ethanol, and 1 mM 2-mercaptoethanol). The PPM1D protein thus eluted was dialyzed against a dialysis buffer (50 mM Tris-HCl (pH 7.5), 0.1 mM EGTA, and 0.02% 2-mercaptoethanol) for 16 hours, and then stored at −80° C. as a 50% glycerol stock (an enzyme concentration of 1 μM).
The enzyme that was expressed and purified by the aforementioned method was used for analysis of the inhibitory effect of the compound on PPM1D. […] A purified phospho-p53 peptide was dissolved in H2O to prepare a 400 μM original substrate solution. The test compound of Example 1 (inhibitor) was dissolved in ethanol (EtOH) to a concentration of 40 mM, and then diluted with dimethyl sulfoxide (DMSO) to adjust an original inhibitor solution with a concentration of 4 mM in advance. Other inhibitors were dissolved in dimethyl sulfoxide (DMSO) to prepare original inhibitor solutions with a concentration of 4 mM. 30 μL of a mixed solution of the inhibitor and the substrate (66.7 μM phosphorylated peptide substrate, […], 1.7% DMSO (in the case of Example 1, 1.5% DMSO and 0.2% EtOH), and 13 mM Tris-HCl (pH 8.0)) was kept warm at 30° C., to which 20 μL of a mixed solution of an enzyme and a metal ion kept at 4° C. (10 nM PPM1D, 125 mM Tris-HCl (pH 7.5), 0.25 mM EGTA, 0.05% 2-mercaptoethanol, and 75 mM MgCl2) was added. The resulting mixture was incubated at 30° C. for 10 minutes, and then the inhibitory activity on PPM1D was measured. The enzyme reaction was terminated with addition of 100 μL of a BIOMOL GREEN reagent (Biomol), and 30 minutes later, the absorbance at 620 nm was measured to detect phosphoric acid freed by PPM1D. The inhibitory effect on PPM1D was analyzed by measuring, from the absorbance measured at 620 nm, the amount of free phosphoric acid reduced due to the addition of the inhibitor with respect to the amount of free phosphoric acid in the case of addition of DMSO not including the inhibitor.

[2] = biological target: T2, full length PPM1A (382 residues) (Homo sapiens, UniProt P35813); test: PPM1A inhibitory activity (Test Example 2); conditions: 16 nM PPM1A, phospho-p38 peptide analog substrate, MnCl2
T2 construct: cDNA encoding full length PPM1A (382 residues); His tag (inferred: same pColdI vector, purified like His-PPM1D); made in house; host or cells: E. coli (pColdI vector)
T2 sequence (P35813 1-382): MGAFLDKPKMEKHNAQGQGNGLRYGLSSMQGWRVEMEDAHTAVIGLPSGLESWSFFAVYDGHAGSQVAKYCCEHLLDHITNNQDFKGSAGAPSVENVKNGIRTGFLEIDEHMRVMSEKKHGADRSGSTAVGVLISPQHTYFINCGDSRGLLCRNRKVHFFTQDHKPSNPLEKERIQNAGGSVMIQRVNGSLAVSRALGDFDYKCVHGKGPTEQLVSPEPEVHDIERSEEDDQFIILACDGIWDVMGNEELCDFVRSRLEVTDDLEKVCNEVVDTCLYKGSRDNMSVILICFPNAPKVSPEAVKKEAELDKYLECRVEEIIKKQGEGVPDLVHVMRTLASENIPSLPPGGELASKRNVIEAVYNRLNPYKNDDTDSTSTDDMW
Description: In order to analyze the enzyme selectivity of the inhibitor, the inhibitory effect on PPM1A, which belongs to the PPM1 family as PPM1D does, was analyzed and compared with the inhibitory effect on PPM1D. Into a pColdI vector, cDNA encoding full length PPM1A (382 residues) (Protein ID: P35813/cDNA ID: S87759) was introduced, and the PPM1A was expressed in E. coli and then purified similarly to PPM1D. The inhibitory activity on 16 nM purified PPM1A was measured. As a substrate of PPM1A, a phospho-p38 peptide analog (Ac-Asp-Asp-Glu-Nle-Thr(P)-Gly-Tyr(P)-Val-Ala-Thr-Arg-NH2: Thr(P), Tyr(P), and Nle indicate phosphorylated Thr, phosphorylated Tyr, and norleucine, respectively) was used.
30 μL of a mixed solution of the inhibitor and the substrate (66.7 μM phosphorylated peptide substrate, each concentration of the inhibitor, 1.7% DMSO (for the test compound of Example 1, 1.5% DMSO and 0.2% EtOH), and 13 mM Tris-HCl (pH 8.0)) was kept warm at 30° C., to which 20 μL of a mixed solution of an enzyme and a metal ion kept at 4° C. (40 nM PPM1A, 125 mM Tris-HCl (pH 7.5), 0.25 mM EGTA, 0.05% 2-mercaptoethanol, and 25 mM MnCl2) was added. The resulting mixture was incubated at 30° C. for 10 minutes, and then the inhibitory activity on PPM1A was measured. […]

[3] = biological target: T3, PP2A (Homo sapiens, UniProt P67775); test: PP2A inhibitory activity (Test Example 2); conditions: with addition of 40 μM inhibitor
T3 construct: purchased Promega K.K
Description: Also, in order to analyze the enzyme selectivity of the inhibitor within the Ser/Thr phosphatase family, the inhibitory effect on PP2A (Protein ID: P67775/cDNA ID: X12649), which belongs to the PPP family, was analyzed. PP2A was purchased from Promega K.K. As a substrate of PP2A, a phospho-p38 peptide analog (Ac-Thr-Asp-Asp-Glu-Met-Thr(P)-Gly-Tyr-Val-Ala-Thr-NH2: Thr(P) indicates phosphorylated Thr) was used. 30 μL of a mixed solution of the inhibitor and the substrate (333.3 μM phosphorylated peptide substrate, each concentration of the inhibitor, 1.7% DMSO (in the case of Example 1, 1.5% DMSO and 0.2% EtOH), and 13 mM Tris-HCl (pH 8.0)) was kept warm at 30° C., to which 20 μL of a mixed solution of an enzyme and a metal ion kept at 4° C. (25 mU PP2A, 125 mM Tris-HCl (pH 7.5), 0.25 mM EGTA, 0.05% 2-mercaptoethanol, and 75 mM MgCl2) was added. The resulting mixture was incubated at 30° C. for 10 minutes, and then the inhibitory activity on PP2A was measured.
The inhibitory activity on PPM1A, PP2A, and PPM1D at each final concentration of the inhibitor (0, 0.1, 0.2, 0.4, 1, 2, 4, 10, or 40 μM) was measured three times with respect to each concentration, and the concentration of the inhibitor required for 50% inhibition of the enzyme activity (IC50) was determined. […]

[4] = biological target: T4, PPM1D (Homo sapiens, UniProt O15297); test: PPM1D IC50, inhibition constant (Ki) and selectivity (Test Example 2); conditions: for Ki: PPM1D, phospho-p53 (Ser 15) peptide analog substrate 5-40 μM; for IC50: inhibitor 0-40 μM, measured three times
T4 construct: the catalytic domain (the positions 1 to 420) of PPM1D protein; His tag; made in house; host or cells: E. coli (pColdI vector)
T4 sequence (O15297 1-420): T1 sequence (O15297 1-420)
Description: The inhibitory activity on PPM1A, PP2A, and PPM1D at each final concentration of the inhibitor (0, 0.1, 0.2, 0.4, 1, 2, 4, 10, or 40 μM) was measured three times with respect to each concentration, and the concentration of the inhibitor required for 50% inhibition of the enzyme activity (IC50) was determined.
The original inhibitor solution was diluted with a solvent (DMSO, (for the test compound of Example 1, 90% DMSO and 10% EtOH)) to prepare each concentration of an inhibitor solution.
Other conditions for measurement of the enzyme activity are the same as those in Test Example 1.
The enzyme selectivity of the inhibitor was analyzed by comparing the IC50 values of the inhibitor on PPM1D, PPM1A, and PP2A.
Also, the inhibition constant of the inhibitor (Ki) and the inhibition pattern were measured as follows.
As a substrate, a phospho-p53 (Ser 15) peptide analog (Ac-Val-Glu-Pro-Pro-Leu-Ser(P)-[…]NH2: Ser(P) indicates phosphorylated Ser) was used. 30 μL of a mixed solution of the inhibitor and the substrate (each concentration of the phosphorylated peptide substrate, each concentration of the inhibitor, 1.7% DMSO (in the case of Example 1, 1.5% DMSO and 0.2% EtOH), and 13 mM Tris-HCl (pH 8.0)) was kept warm at 30° C., to which 20 μL of a mixed solution of an enzyme and a metal ion kept at 4° C. (10 nM PPM1D, 125 mM Tris-HCl (pH 7.5), 0.25 mM EGTA, 0.05% 2-mercaptoethanol, and 75 mM MgCl2) was added. The resulting mixture was incubated at 30° C. for 10 minutes, and then the inhibitory activity on PPM1D was measured.
The activity on PPM1D was measured at each concentration of the phosphorylated peptide substrate (5, 10, 20, and 40 μM), and at each final concentration of the inhibitor (0, 0.3, 0.4, and 0.6 μM (the compound of Example 1 [Compound 1]) or 0, 0.4, and 1.2 μM (the compound of Example 5 [Compound 2]). The enzyme reaction was terminated with addition of 50 μL of a BIOMOL GREEN reagent (Biomol) to a reaction solution, and 30 minutes later, the absorbance at 620 nm was measured to detect phosphoric acid freed by PPM1D.
Based on the results thus obtained, Ki (μM) was calculated.

[5] = phospho-p53 (Ser 15) peptide substrate, 30° C., 10 minutes, read-out: Rate of PPM1D inhibition (%)

T3 sequence (P67775 whole entry): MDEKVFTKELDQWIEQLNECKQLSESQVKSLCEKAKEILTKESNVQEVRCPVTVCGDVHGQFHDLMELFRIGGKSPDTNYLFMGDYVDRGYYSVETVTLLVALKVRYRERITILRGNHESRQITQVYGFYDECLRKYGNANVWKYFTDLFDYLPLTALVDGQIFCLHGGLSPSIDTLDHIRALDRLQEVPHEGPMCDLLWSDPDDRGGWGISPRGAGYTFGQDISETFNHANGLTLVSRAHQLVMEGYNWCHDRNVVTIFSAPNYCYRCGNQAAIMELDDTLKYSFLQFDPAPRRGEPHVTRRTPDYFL
T3 sequence (P30153 2-589 partner limits assumed): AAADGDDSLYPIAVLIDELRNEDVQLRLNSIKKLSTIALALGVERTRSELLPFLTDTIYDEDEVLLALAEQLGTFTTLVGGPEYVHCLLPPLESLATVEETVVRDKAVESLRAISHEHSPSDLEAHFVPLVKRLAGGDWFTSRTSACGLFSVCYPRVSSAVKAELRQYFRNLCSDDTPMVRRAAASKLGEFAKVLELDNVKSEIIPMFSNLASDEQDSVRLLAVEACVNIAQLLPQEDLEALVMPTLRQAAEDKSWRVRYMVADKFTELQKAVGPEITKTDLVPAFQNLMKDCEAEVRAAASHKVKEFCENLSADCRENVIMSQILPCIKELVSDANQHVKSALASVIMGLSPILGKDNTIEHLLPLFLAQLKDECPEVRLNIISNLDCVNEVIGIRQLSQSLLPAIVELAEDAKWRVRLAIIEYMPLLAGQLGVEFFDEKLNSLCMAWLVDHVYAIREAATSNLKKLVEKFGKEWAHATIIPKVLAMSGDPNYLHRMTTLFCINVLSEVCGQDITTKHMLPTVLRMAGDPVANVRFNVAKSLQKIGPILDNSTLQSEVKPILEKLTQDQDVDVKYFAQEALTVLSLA

Row | inhibition [1, 5] | SMILES | inhibition [1] | also measured
1 | 0% | C=C1C2(/C=C/CO)CC[C@@]1(C)C2(C)C [Comparative Example 4, reference compound] |  | 
2 | 97.1 ± 2.49% | CC[Si](CC)(CC)O[C@@H]1C[C@H](C)C[C@@H]2[C@@H]1C[C@H](O[Si](C)(C)C(C)(C)C)[C@@H]1[C@](C)(CO)C[C@H](O)C[C@@]21C [Example 1] |  | IC50 [2]: 21000 ± 1700 nM; inhibition at 40 µM [3]: 11%; Ki [4]: 590 ± 50 nM; IC50 [4]: 430 ± 40 nM
3 | 92.7 ± 1.4% | CCOC(=O)C=CC12CCC(C)(C1CO[Si](C(C)C)(C(C)C)C(C)C)C2(C)C (stereo not shown) [Example 5] |  | IC50 [2]: 28000 ± 4200 nM; inhibition at 40 µM [3]: 14%; Ki [4]: 2600 ± 100 nM; IC50 [4]: 930 ± 40 nM

The next lines start with the compound.

Row | SMILES | inhibition [1, 5] | inhibition [1] | also measured
4 | COC(=O)[C@]1(C)CC(=O)C[C@]2(C)[C@@H]3C[C@@H](C)C[C@@H](OC(C)=O)[C@H]3CC(=O)[C@H]21 [Comparative Example 2, reference compound] | 0% |  | 
5 | CCOC(=O)/C=C/C12CC[C@](C)([C@@H]1CO)C2(C)C [Comparative Example 3, reference compound] | 0% |  | 
6 | C[C@H]1C[C@@H](O)[C@H]2C[C@H](O[Si](C)(C)C(C)(C)C)[C@@H]3[C@](C)(CO)C[C@H](O)C[C@@]3(C)[C@@H]2C1 [Example 4] |  | 25.1% | 
7 | CC(C)[Si](OCCCC#CCO)(C(C)C)C(C)C [Example 10] |  | 35.4 ± 2.18% | 
8 | CSC(C)(CO[Si](C(C)C)(C(C)C)C(C)C)S(=O)(=O)c1ccc(C)cc1 (stereo not shown) [Example 11] |  | 33.7 ± 4.78% | 
